Results as given in patent US10106558B2, “Azolobenzazine compounds, compositions comprising these compounds and their use for controlling invertebrate pests” (BASF SE, priority 2015, dated 2018).

Assays:
Type in all cases: in vivo
[1] = test system: boll weevil (Anthonomus grandis); assay: Action on boll weevil, eggs on insect diet in 96-well microtiter plates; details: 120 h, 800 ppm, egg and larval mortality visually assessed after 5 days, read-out: mortality in comparison with untreated controls
Description: Example B3: Action on Boll Weevil (Anthonomus grandis)
For evaluating control of boll weevil (Anthonomus grandis) the test unit consisted of 96-well-microtiter plates containing an insect diet and 5-10 A. grandis eggs.
(§1) The compounds were formulated using a solution containing 75% v/v water and 25% v/v DMSO. Different concentrations of formulated compounds were sprayed onto the insect diet at 5 μl, using a custom built micro atomizer, at two replications.
After application, microtiter plates were incubated at about 25±1° C. and about 75±5% relative humidity for 5 days. Egg and larval mortality was then visually assessed.

[2] = test system: Silverleaf Whitefly (Bemisia argentifolii) (Adults); assay: Action on silverleaf whitefly adults, sprayed cotton plants; details: 72 h, 3 days after treatment, read-out: mortality in comparison with untreated controls
Description: Example B4: Action on Silverleaf Whitefly (Bemisia argentifolii) (Adults)
(§2) The active compounds were formulated by a Tecan liquid handler in 100% cyclohexanone as a 10,000 ppm solution supplied in tubes. The 10,000 ppm solution was serially diluted in 100% cyclohexanone to make interim solutions. These served as stock solutions for which final dilutions were made by the Tecan in 50% acetone:50% water (v/v) into 5 or 10 ml glass vials. A nonionic surfactant (Kinetic®) was included in the solution at a volume of 0.01% (v/v). The vials were then inserted into an automated electrostatic sprayer equipped with an atomizing nozzle for application to plants/insects.
Cotton plants at the cotyledon stage (one plant per pot) were sprayed by an automated electrostatic plant sprayer equipped with an atomizing spray nozzle. The plants were dried in the sprayer fume hood and then removed from the sprayer. Each pot was placed into a plastic cup and about 10 to 12 whitefly adults (approximately 3-5 days old) were introduced. The insects were collected using an aspirator and a nontoxic Tygon® tubing connected to a barrier pipette tip. The tip, containing the collected insects, was then gently inserted into the soil containing the treated plant, allowing insects to crawl out of the tip to reach the foliage for feeding. Cups were covered with a reusable screened lid. Test plants were maintained in a growth room at about 25° C. and about 20-40% relative humidity for 3 days, avoiding direct exposure to fluorescent light (24 hour photoperiod) to prevent trapping of heat inside the cup. Mortality was assessed 3 days after treatment, compared to untreated control plants.

[3] = test system: tobacco budworm (Heliothis virescens); assay: Action on tobacco budworm, eggs on insect diet in 96-well microtiter plates; details: 120 h, egg and larval mortality visually assessed after 5 days, read-out: mortality in comparison with untreated controls
Description: Example B6: Action on Tobacco Budworm (Heliothis virescens)
For evaluating control of tobacco budworm (Heliothis virescens) the test unit consisted of 96-well-microtiter plates containing an insect diet and 15-25 H. virescens eggs.
The compounds were formulated using a solution containing 75% v/v water and 25% v/v DMSO. Different concentrations of formulated compounds were sprayed onto the insect diet at 10 μl, using a custom built micro atomizer, at two replications.
After application, microtiter plates were incubated at about 28±1° C. and about 80±5% relative humidity for 5 days. Egg and larval mortality was then visually assessed.

[4] = test system: Diamond Back Moth (Plutella xylostella); assay: Action on diamond back moth, dipped cabbage leaves; details: 3rd instar larvae, 72 hours after treatment, read-out: mortality in comparison with untreated controls
Description: Example B9: Action on Diamond Back Moth (Plutella xylostella)
The active compound is dissolved at the desired concentration in a mixture of 1:1 (vol:vol) distilled water:acetone. Surfactant (Kinetic® HV) is added at a rate of 0.01% (vol/vol). The test solution is prepared at the day of use.
Leaves of cabbage were dipped in test solution and air-dried. Treated leaves were placed in petri dishes lined with moist filter paper and inoculated with ten 3rd instar larvae. Mortality was recorded 72 hours after treatment. Feeding damages were also recorded using a scale of 0-100%.

[5] = test system: Southern Armyworm (Spodoptera eridania), 2nd instar larvae; assay: Action on southern armyworm 2nd instar larvae, sprayed lima bean plants; details: 96 h, 4 days after treatment, read-out: mortality in comparison with untreated controls
Description: Example B10: Action on Southern Armyworm (Spodoptera eridania), 2nd Instar Larvae
as §2, with “into 10” for “into 5”, “or 20” for “or 10”
Lima bean plants (variety Sieva) were grown 2 plants to a pot and selected for treatment at the 1st true leaf stage. Test solutions were sprayed onto the foliage by an automated electrostatic plant sprayer equipped with an atomizing spray nozzle. The plants were dried in the sprayer fume hood and then removed from the sprayer. Each pot was placed into perforated plastic bags with a zip closure. About 10 to 11 armyworm larvae were placed into the bag and the bags zipped closed. Test plants were maintained in a growth room at about 25° C. and about 20-40% relative humidity for 4 days, avoiding direct exposure to fluorescent light (24 hour photoperiod) to prevent trapping of heat inside the bags. Mortality and reduced feeding were assessed 4 days after treatment, compared to untreated control plants.

[6] = test system: yellow fever mosquito (Aedes aegypti); assay: whole plant or invertebrate; details: 48 h, larval mortality visually assessed after 2 days, read-out: mortality in comparison with untreated controls
Description: Example B1: Action on Yellow Fever Mosquito (Aedes aegypti)
For evaluating control of yellow fever mosquito (Aedes aegypti) the test unit consisted of 96-well-microtiter plates containing 200 μl of tap water per well and 5-15 freshly hatched A. aegypti larvae.
The active compounds were formulated using a solution containing 75% (v/v) water and 25% (v/v) DMSO. Different concentrations of formulated compounds or mixtures were sprayed onto the insect diet at 2.5 μl, using a custom built micro atomizer, at two replications.
After application, microtiter plates were incubated at 28+1° C., 80+5% RH for 2 days. Larval mortality was then visually assessed.

[7] = test system: Orchid Thrips (Dichromothrips corbetti); assay: Action on orchid thrips, floral-immersion technique; details: adult thrips, 72 hours after treatment, read-out: mortality in comparison with untreated controls
Description: Example B2: Action on Orchid Thrips (Dichromothrips Corbetti)
Dichromothrips corbettiadults used for bioassay were obtained from a colony maintained continuously under laboratory conditions. For testing purposes, the test compound is diluted in a 1:1 mixture of acetone:water (vol:vol), plus Kinetic® HV at a rate of 0.01% v/v.
Thrips potency of each compound was evaluated by using a floral-immersion technique. All petals of individual, intact orchid flowers were dipped into treatment solution and allowed to dry in Petri dishes. Treated petals were placed into individual re-sealable plastic along with about 20 adult thrips. All test arenas were held under continuous light and a temperature of about 28° C. for duration of the assay. After 3 days, the numbers of live thrips were counted on each petal. The percent mortality was recorded 72 hours after treatment.

[8] = test system: Mediterranean fruitfly (Ceratitis capitata); assay: Action on Mediterranean fruitfly, eggs on insect diet in microtiter plates; details: 120 h, egg and larval mortality visually assessed after 5 days, read-out: mortality in comparison with untreated controls
Description: Example B5: Action on Mediterranean Fruitfly (Ceratitis capitata)
For evaluating control of Mediterranean fruitfly (Ceratitis capitata) the test unit consisted of microtiter plates containing an insect diet and 50-80 C. capitata eggs.
as §1
After application, microtiter plates were incubated at about […] and about 80+5% relative humidity for 5 days. Egg and larval mortality was then visually assessed.

CC(C)c1ccccc1NC(=S)N/N=C/c1ccc2c(ccc3c2ncn3-c2ccc(OC(F)(F)F)cc2)n1 [Compound C-3, 1-(2-isopropylphenyl)-3-[(E)-[3-[4-(trifluoromethoxy)phenyl]imidazo[4,5-f]quinolin-7-yl]methyleneamino]thiourea]
≥ 75%: mortality at 800 ppm [1] | mortality at 500 ppm [2] | mortality at 800 ppm [3] | mortality at 500 ppm [4] | mortality at 500 ppm [5]

CC(C)c1ccccc1N1C(=O)CS/C1=N\N=C\c1ccc2c(ccc3c2ncn3-c2ccc(OC(F)(F)F)cc2)n1 [Compound C-4, (2Z)-3-(2-isopropylphenyl)-2-[(E)-[3-[4-(trifluoromethoxy)phenyl]imidazo[4,5-f]quinolin-7-yl]methylenehydrazono]thiazolidin-4-one]
≥ 75%: mortality at 800 ppm [6] | mortality at 500 ppm [7] | mortality at 800 ppm [1] | mortality at 500 ppm [2] | mortality at 800 ppm [8] | mortality at 800 ppm [3] | mortality at 500 ppm [4] | mortality at 500 ppm [5]

CC(C)c1ccccc1/N=C1\SCC(=O)N1/N=C/c1ccc2c(ccc3c2ncn3-c2ccc(OC(F)(F)F)cc2)n1 [Compound C-8, (2Z)-2-(2-isopropylphenyl)imino-3-[(E)-[3-[4-(trifluoromethoxy)phenyl]imidazo[4,5-f]quinolin-7-yl]methyleneamino]thiazolidin-4-one]
≥ 75%: mortality at 800 ppm [6] | mortality at 500 ppm [7] | mortality at 800 ppm [1] | mortality at 500 ppm [2] | mortality at 800 ppm [8] | mortality at 800 ppm [3] | mortality at 500 ppm [4] | mortality at 500 ppm [5]

CC(C)c1ccccc1/N=C1\SCC(=O)N1/N=C/c1cnc2c(ccc3c2ncn3-c2ccc(OC(F)(F)F)cc2)c1 [Compound C-16, (2Z)-2-(2-isopropylphenyl)imino-3-[(E)-[3-[4-(trifluoromethoxy)phenyl]imidazo[4,5-h]quinolin-7-yl]methyleneamino]thiazolidin-4-one]
≥ 75%: mortality at 800 ppm [6] | mortality at 500 ppm [7] | mortality at 800 ppm [1] | mortality at 500 ppm [2] | mortality at 800 ppm [8] | mortality at 800 ppm [3] | mortality at 500 ppm [4] | mortality at 500 ppm [5]

CC(C)c1ccccc1N1C(=O)CS/C1=N\N=C\c1cnc2c(ccc3c2ncn3-c2ccc(OC(F)(F)F)cc2)c1 [Compound C-17, (2Z)-3-(2-isopropylphenyl)-2-[(E)-[3-[4-(trifluoromethoxy)phenyl]imidazo[4,5-h]quinolin-7-yl]methylenehydrazono]thiazolidin-4-one]
≥ 75%: mortality at 800 ppm [6] | mortality at 500 ppm [7] | mortality at 800 ppm [1] | mortality at 500 ppm [2] | mortality at 800 ppm [8] | mortality at 800 ppm [3] | mortality at 500 ppm [4]

CC(C)c1ccccc1NC(=S)N/N=C/c1ccc2c(ccc3c(-c4ccc(OC(F)(F)F)cc4)n(C)nc32)n1 [Compound C-19, 1-(2-isopropylphenyl)-3-[(E)-[2-methyl-3-[4-(trifluoromethoxy)phenyl]pyrazolo[3,4-f]quinolin-7-yl]methyleneamino]thiourea]
≥ 75%: mortality at 800 ppm [6] | mortality at 800 ppm [1] | mortality at 500 ppm [2] | mortality at 800 ppm [8] | mortality at 800 ppm [3] | mortality at 500 ppm [5]

CC(C)c1ccccc1N1C(=O)CS/C1=N\N=C\c1ccc2c(ccc3c(-c4ccc(OC(F)(F)F)cc4)n(C)nc32)n1 [Compound C-20, (2Z)-3-(2-isopropylphenyl)-2-[(E)-[2-methyl-3-[4-(trifluoromethoxy)phenyl]pyrazolo[3,4-f]quinolin-7-yl]methylenehydrazono]thiazolidin-4-one]
≥ 75%: mortality at 800 ppm [6] | mortality at 800 ppm [1] | mortality at 500 ppm [2] | mortality at 800 ppm [8] | mortality at 800 ppm [3] | mortality at 500 ppm [4] | mortality at 500 ppm [5]

Cc1cccc(C)c1N1C(=O)CS/C1=N\N=C\c1cc2ccc3c(ncn3-c3ccc(OC(F)(F)F)cc3)c2cn1 [Compound C-27, (2Z)-3-(2,6-dimethylphenyl)-2-[(E)-[3-[4-(trifluoromethoxy)phenyl]imidazo[4,5-h]isoquinolin-7-yl]methylenehydrazono]thiazolidin-4-one]
≥ 75%: mortality at 800 ppm [6] | mortality at 500 ppm [7] | mortality at 800 ppm [1] | mortality at 800 ppm [8] | mortality at 800 ppm [3] | mortality at 500 ppm [4] | mortality at 500 ppm [5]

Cc1cccc(C)c1/N=C1\SCC(=O)N1/N=C/c1cc2ccc3c(ncn3-c3ccc(OC(F)(F)F)cc3)c2cn1 [Compound C-29, (2Z)-2-(2,6-dimethylphenyl)imino-3-[(E)-[3-[4-(trifluoromethoxy)phenyl]imidazo[4,5-h]isoquinolin-7-yl]methyleneamino]thiazolidin-4-one]
≥ 75%: mortality at 800 ppm [6] | mortality at 800 ppm [1] | mortality at 500 ppm [2] | mortality at 800 ppm [8] | mortality at 800 ppm [3] | mortality at 500 ppm [4] | mortality at 500 ppm [5]
